For this assay, the system named is 3,6-L-AHG transferase. Put plainly: Quantitative analysis of 3,6-L-AHG with the final active fraction and NADP^+ (absorbance at 339 nm). Type of assay: biochemical, Saccharophagus degradans. The note with it: 50 minute reaction, relative concentrations 1, 0.5, 0.25, 0.1 and 0.05 (1 = 20 mg/mL), FIG. 1. On the procedure: 7.5 μl of the final active fraction obtained in Preparation Example 2, 0.1 mM of NADP^+, and 50 mM of Tris-HCl (pH 8.0) are mixed to prepare 100 μl of a composition for quantitative analysis of 3,6-L-AHG.
An amount of 3,6-L-AHG is added to various 100 μl samples of the composition for quantitative analysis of 3,6-L-AHG obtained in Preparation Example 4 to achieve dilution factors for the 3,6-L-AHG of 1, 0.5, 0.25, 0.1 and 0.05 in terms of relative concentrations. A relative 3,6-L-AHG concentration of 1 corresponds to 20 mg/mL. Reaction is carried out for 50 minutes, and then absorbance is measured at 339 nm using a microplate spectrophotometer (Bio-Tek Instruments, Inc.) according to the End-point UV method.

For the compound `O=C[C@@H](O)[C@@H]1OC[C@H](O)[C@H]1O` [3,6-L-AHG, 3,6-anhydro-L-galactose], the “amount of NADPH produced versus amount of 3,6-L-AHG in the sample” value is listed as “linearly related”.

The values are drawn from patent US8486654B2, “Compositions and methods for measuring 3,6-L-AHG transferase activity and 3,6-L-AHG” (Samsung Electronics Co., Ltd., priority 2010, dated 2013).
